Read-outs that look alike come from different tables or passages of the source.
How the values were obtained:
[1] = Metabolic stability in vitro, dog liver microsomes (calculation of Fmax); assay type: in vitro ADME; details: maximal oral bioavailability calculated from microsomal half-life, 1 μM
Procedure: (§1) The metabolic stability of test compounds in vitro was determined by incubating them at 1 μM with a suspension liver microsomes in 100 mM phosphate buffer, pH7.4 (NaH2PO4×H2O+Na2HPO4×2H2O) at a protein concentration of 0.5 mg/mL and at 37° C. The reaction was activated by adding a co-factor mix containing 1.2 mg NADP, 3 IU glucose-6-phosphate dehydrogenase, 14.6 mg glucose-6-phosphate and 4.9 mg MgCl2 in phosphate buffer, pH 7.4. Organic solvent in the incubations was limited to <0.2% dimethylsulfoxide (DMSO) and <1% methanol. During incubation, the microsomal suspensions were continuously shaken and aliquots were taken at 2, 8, 16, 30, 45 and 60 min, to which equal volumes of cold methanol were immediately added. Samples were frozen at −20° C. over night, subsequently centrifuged for 15 minutes at 3000 rpm and the supernatant was analyzed with an Agilent 1200 HPLC-system with LCMS/MS detection.
(§2) The half-life of a test compound was determined from the concentration-time plot. From the half-life the intrinsic clearances were calculated. Together with the additional parameters liver blood flow, specific liver weight and microsomal protein content the hepatic in vivo blood clearance (CL) and the maximal oral bioavailability (Fmax) were calculated for the different species. The following parameter values were used: Liver blood flow—1.3 L/h/kg (human), 2.1 L/h/kg (dog), 4.2 L/h/kg (rat); specific liver weight—21 g/kg (human), 39 g/kg (dog), 32 g/kg (rat); microsomal protein content—40 mg/g.
(§3) With the described assay only phase-I metabolism of microsomes is reflected, e.g. typically oxidoreductive reactions by cytochrome P450 enzymes and flavin mono-oxygenases (FMO) and hydrolytic reactions by esterases (esters and amides).

[2] = Metabolic stability in vitro, rat liver microsomes (calculation of Fmax); assay type: in vitro ADME; details: maximal oral bioavailability calculated from microsomal half-life, 1 μM
Procedure: as §1, §2, §3

[3] = Metabolic stability in vitro, human liver microsomes (calculation of Fmax); assay type: in vitro ADME; details: maximal oral bioavailability calculated from microsomal half-life, 1 μM
Procedure: as §1, §2, §3

[4] = system: HeLa human cervical tumor cells; experiment: HeLa cell proliferation assay (crystal violet); assay type: cell-based; details: 96 h, 4 days incubation, read-out: Inhibition of cell proliferation, cell Line: HeLa IC50
[5] = target: human kinase Mps-1 (Homo sapiens (Human), UniProt P33981); experiment: Mps-1 kinase assay (TR-FRET); assay type: biochemical
[6] = read-out: Mps-1 Inhibition, IC50 (Assay with 10 μM ATP), 10 μM ATP
[7] = read-out: Mps-1 Inhibition, IC50 (Assay with 2 mM ATP), 2 mM ATP

Sequence of human kinase Mps-1 (P33981 whole entry): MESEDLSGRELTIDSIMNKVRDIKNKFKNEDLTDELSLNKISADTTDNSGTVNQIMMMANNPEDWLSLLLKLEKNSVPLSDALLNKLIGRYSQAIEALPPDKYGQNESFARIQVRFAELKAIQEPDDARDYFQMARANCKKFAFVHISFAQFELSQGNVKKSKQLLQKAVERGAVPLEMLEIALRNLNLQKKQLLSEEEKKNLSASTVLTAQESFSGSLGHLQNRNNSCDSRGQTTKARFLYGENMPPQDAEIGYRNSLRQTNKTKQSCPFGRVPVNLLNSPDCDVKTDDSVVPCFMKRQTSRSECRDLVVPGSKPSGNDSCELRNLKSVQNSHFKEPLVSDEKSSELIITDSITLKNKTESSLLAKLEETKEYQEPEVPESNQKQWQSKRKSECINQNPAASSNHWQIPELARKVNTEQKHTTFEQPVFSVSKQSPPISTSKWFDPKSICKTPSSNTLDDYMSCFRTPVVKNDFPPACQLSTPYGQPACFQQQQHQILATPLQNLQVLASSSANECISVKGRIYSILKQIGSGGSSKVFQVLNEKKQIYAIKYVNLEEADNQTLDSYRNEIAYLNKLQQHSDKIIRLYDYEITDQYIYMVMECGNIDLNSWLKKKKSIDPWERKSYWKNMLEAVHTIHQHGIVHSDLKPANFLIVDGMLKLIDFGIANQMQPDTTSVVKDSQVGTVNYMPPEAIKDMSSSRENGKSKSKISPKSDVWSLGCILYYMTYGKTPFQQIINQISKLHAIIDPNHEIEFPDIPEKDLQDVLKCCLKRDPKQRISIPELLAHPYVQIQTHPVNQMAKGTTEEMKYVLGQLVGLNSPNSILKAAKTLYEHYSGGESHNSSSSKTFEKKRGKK

Row | SMILES | Dog liver microsomes; Fmax [%] [1] [%] | Rat liver microsomes; Fmax [%] [2] [%] | Human liver microsomes; Fmax [%] [3] [%] | IC50 [4] [nM] | IC50 [5, 6] [nM] | IC50 [5, 7] [nM] | IC50 ([5]; 2 mM ATP) [nM]
1 | COc1cc(S(C)(=O)=O)ccc1Nc1nc2ccc(-c3ccc(NC(=O)[C@H](C)c4ccc(F)cc4)cc3)cn2n1 [Example 01.01, (2R)-2-(4-fluorophenyl)-N-[4-(2-{[2-methoxy-4-(methylsulfonyl)phenyl]-amino}[1,2,4]triazolo[1,5-a]pyridin-6-yl)phenyl]propanamide] | 64 | 92 | 92 | < 400 |  |  | 
2 | COc1cc(N2CCOC2=O)ccc1Nc1nc2ccc(-c3ccc(NC(=O)[C@H](C)c4ccc(F)cc4)cc3)cn2n1 [Example 01.09, (2R)-2-(4-fluorophenyl)-N-[4-(2-{[2-methoxy-4-(2-oxo-1,3-oxazolidin-3-yl)phenyl]amino}[1,2,4]triazolo[1,5-a]pyridin-6-yl)phenyl]propanamide] | 48 | 58 | 49 |  |  |  | 
3 | COc1cc(C(=O)N2CC(F)C2)ccc1Nc1nc2ccc(-c3ccc(NC(=O)[C@H](C)c4ccc(F)cc4)cc3)cn2n1 [Example 01.07, (2R)-N-{4-[2-({4-[(3-fluoroazetidin-1-yl)carbonyl]-2-methoxyphenyl}amino)-[1,2,4]triazolo[1,5-a]pyridin-6-yl]phenyl}-2-(4-fluorophenyl)propanamide] | 86 | 83 | >95 |  |  |  | 
4 | COc1cc(S(C)(=O)=O)ccc1Nc1nc2ccc(-c3ccc(NC(=O)[C@H](N)c4ccc(F)cc4)cc3)cn2n1 [Example01.11, (2R)-2-amino-2-(4-fluorophenyl)-N-[4-(2-{[2-methoxy-4-(methylsulfonyl)-phenyl]amino}[1,2,4]triazolo[1,5-a]pyridin-6-yl)phenyl]ethanamide] | 75 | 92 | 76 | < 600 | < 1 |  | 9
5 | C[C@@H](C(=O)Nc1ccc(-c2ccc3nc(Nc4ccc(S(C)(=O)=O)cc4OCC(F)(F)F)nn3c2)cc1)c1ccc(F)cc1 [Example 01.03, (2R)-2-(4-fluorophenyl)-N-[4-(2-{[4-(methylsulfonyl)-2-(2,2,2-trifluoro-ethoxy)phenyl]amino}[1,2,4]triazolo[1,5-a]pyridin-6-yl)phenyl]-propanamide] | 55 | 93 | >95 |  | < 1 | < 1 | 

Continued, values first:

Row | Dog liver microsomes; Fmax [%] [1] [%] | Rat liver microsomes; Fmax [%] [2] [%] | Human liver microsomes; Fmax [%] [3] [%] | IC50 [4] [nM] | IC50 [5, 6] [nM] | IC50 [5, 7] [nM] | IC50 ([5]; 2 mM ATP) [nM] | SMILES
6 | 73 | 86 | 68 | < 600 | < 1 | < 1 |  | CCOc1cc(S(C)(=O)=O)ccc1Nc1nc2ccc(-c3ccc(NC(=O)[C@H](C)c4ccc(F)cc4)cc3)cn2n1 [Example01.02, (2R)—N-[4-(2-{[2-ethoxy-4-(methylsulfonyl)phenyl]amino}[1,2,4]-triazolo[1,5-a]pyridin-6-yl)phenyl]-2-(4-fluorophenyl)propanamide]
7 | 94 | 87 | >95 | < 400 | < 1 |  | 2 | COc1cc(C(=O)NCC(F)(F)F)ccc1Nc1nc2ccc(-c3ccc(NC(=O)[C@H](C)c4ccc(F)cc4)cc3)cn2n1 [Example 01.04, 4-{[6-(4-{[(2R)-2-(4-fluorophenyl)propanoyl]amino}phenyl)[1,2,4]-triazolo[1,5-a]pyridin-2-yl]amino}-3-methoxy-N-(2,2,2-trifluoro-ethyl)benzamide]
8 | 81 | 94 | >95 | < 100 | < 1 |  | 1.5 | C[C@@H](C(=O)Nc1ccc(-c2ccc3nc(Nc4ccc(C(N)=O)cc4OCC(F)(F)F)nn3c2)cc1)c1ccc(F)cc1 [Example01.06, 4-{[6-(4-{[(2R)-2-(4-fluorophenyl)propanoyl]amino}phenyl)[1,2,4]triazolo-[1,5-a]pyridin-2-yl]amino}-3-(2,2,2-trifluoroethoxyl)benzamide]
9 | 89 | >95 | >95 | < 100 | < 1 |  | 1.2 | COc1cc(C(N)=O)ccc1Nc1nc2ccc(-c3ccc(NC(=O)[C@H](C)c4ccc(F)cc4)cc3)cn2n1 [Example01.05]
10 | 75 | 74 | 62 |  | < 1 | < 1 |  | COc1cc(C(=O)N2CCC2)ccc1Nc1nc2ccc(-c3ccc(NC(=O)[C@H](C)c4ccc(F)cc4)cc3)cn2n1 [Example01.08, (2R)—N-[4-(2-{[4-(azetidin-1-ylcarbonyl)-2-methoxyphenyl]amino}[1,2,4]-triazolo[1,5-a]pyridin-6-yl)phenyl]-2-(4-fluorophenyl)propanamide]
11 | >95 | >95 | >95 | < 200 | < 1 |  | 1.1 | CS(=O)(=O)c1ccc(Nc2nc3ccc(-c4ccc(NC(=O)C(CO)c5ccc(F)cc5)cc4)cn3n2)c(OCC(F)(F)F)c1 (single isomer, unassigned) [Example01.10, (−)-2-(4-fluorophenyl)-3-hydroxy-N-[4-(2-{[4-(methylsulfonyl)-2-(2,2,2-tri-fluoroethoxy)phenyl]amino}[1,2,4]triazolo[1,5-a]pyridin-6-yl)phenyl]-propanamide]
